# Assay results reported in patent US20240390377A1, “COMPOSITION FOR THE PREVENTION OR TREATMENT OF NEURODEGENERATIVE OR MOTOR NEURON DISEASES COMPRISING HALOFUGINONE AS AN ACTIVE INGREDIENT” (CURAMYS CO., LTD., priority 2022, published 2024).
# What was measured:
# [1] = test system: G93A mutant SOD1 mouse-derived fibroblasts; test: Real-time qRT-PCR analysis of ALS animal model-derived fibroblasts; type: cell-based; settings: low or high concentration halofuginone for 24 hours; elevation vs Non-TG fibroblasts (FIG. 5a)
# Text: Specifically, primary fibroblasts were isolated from skeletal muscle of 120-day-old non-transformed or G93A mutant SOD1 transgenic mice of Example 4. The excised tissue was placed on 100-mm culture dishes containing HBSS (Hanks' Balanced Salt Solution; Gibco, cat #14175095) and penicillin-streptomycin (Cat #15070-063, Thermo Fisher Scientific) without calcium and magnesium. Muscle tissue was cut on ice blocks. Then, the tissue was cut into 1 mm pieces and enzymatically reacted with 0.2% IV type collagenase (Sigma) at 37° C. for 1 hour. The enzymatic reaction was stopped by the addition of 10 ml of FBS (Gibco). […]
# Specifically, total RNA was isolated from C2C12 cells in Example 1, fibroblasts in Example 5, and the lumbar spinal cord of mice in Example 6 using the FavorPrep™ Tri-RNA Reagent (Favorgen). […] The concentration of total RNA was measured at 260 nm absorbance using a spectrophotometer (NanoDrop Spectrophotometer ND-2000, Thermo Scientific). cDNA was synthesized from 1 μg of total RNA using the ReverTra Ace-α™ (Toyobo) according to the manufacturers protocol. Quantitative RT-PCR was performed using the SYBR Green ExcelTaq™ 2× Fast Q-PCR Master Mix (TQ1200, Smobio) on a thermocycler (CFX Connect Real-Time PCR Detection System, BIO-RAD) with the primers listed in Table 3 below. […]
# [2] = test system: G93A mutant SOD1 transgenic mice; test: Immunohistochemical analysis of lumbar spinal cord in ALS animal model; type: in vivo, mouse
# Protocol: (§1) As a control group, non-transgenic mice were injected intraperitoneally (i.p.) with vehicle (DMSO) in the same manner for the same period of time.
# (§2) Specifically, the mice of Example 6 above were perfused with 4% paraformaldehyde (PFA) on 90 and 120 days of age, and the lumbar spinal cord and knee joints were separated. After fixation in 4% PFA for 24 hours, the knee joints were rinsed in running tap water for 24 hours and then incubated at 4° C. with continuous shaking in decalcifying solution (Calci-Clear, HS-104, National Diagnostics). The decalcification solution was replaced daily with fresh solution until the bones were easily penetrated with a needle, indicating completion of the decalcification process. Subsequently, the decalcified knee joints were rinsed in running tap water for 24 hours, and the spinal cord and knee joint samples were treated with 30% sucrose until they sank, followed by freeze protection, followed by successive cuts (14 μm). The lumbar spinal cord and knee joint tissue sections were washed three times with PBS and permeabilized with 0.5% Triton X-100 for 5 minutes. Subsequently, they were blocked with 5% bovine serum albumin (BSA) in 0.3% PBS-T at room temperature for 1 hour. The knee joint tissue sections were incubated with anti-TGF-β1 antibody (1:200; Santa Cruz, cat #sc130348), anti-α-SMA antibody (1:200; Abcam, cat #ab7817), anti-MyoD antibody (1:200; Santa Cruz, cat #sc377460), and anti-Collagen I antibody (1:200; Abcam, cat #ab21286) each, while the lumbar spinal cord sections were incubated with anti-GFAP antibody (1:200; Dako, cat #Z0334), anti-Iba1 antibody (1:200; Wako, cat #016)-20001), anti-TGF-β1 antibody (1:200; Santa Cruz, cat #sc130348), anti-TGF-β1 antibody (1:200; Abcam, cat #ab92486), and anti-IL-1β antibody (1:200; R&D Systems, cat #AF-401-NA) at 4° C. for an additional 24 hours. After washing the sections three times with PBS, they were incubated with Alexa Fluor secondary antibodies in a dark chamber at room temperature for 1 hour. […] Furthermore, analysis was performed using Leica Application Suite X software (Leica Microsystems).
# Specifically, halofuginone was administered to G93A mutant SOD1 mice in the same manner as described in <Example 6>, and immunohistochemical analysis was performed in the same manner as described in <Example 8> to identify TGF-β1 and glial cells in the lumbar spinal cord. Considering that TGF-β derived from astrocytes has been reported to accelerate disease in ALS mice, each group's spinal cord was co-stained with TGF-β and GFAP during immunohistochemical analysis. In addition, Iba1 staining was performed to confirm the activity of microglia (FIGS. 9a and 9b).
# In addition, to investigate the effect of glial changes in TGF-β and CNS on inflammation, IL-1β, a representative pro-inflammatory cytokine, was simultaneously stained with GFAP during immunohistochemical analysis (FIG. 9c).
# In addition, halofuginone was administered to G93A mutant SOD1 mice in the same manner as described in Example 6. After sacrificing the mice at 90 days of age, Iba1 staining was performed to confirm the activation of microglia (FIG. 10a), and motor neurons were observed and counted using the same method as described above (FIG. 10b).
# [3] = test system: G93A mutant SOD1 transgenic mice; test: Immunohistochemical analysis of knee joint synovial cavity in ALS animal model; type: in vivo, mouse
# Protocol: as §1, §2
# Specifically, halofuginone was administered to G93A mutant SOD1 mice from the early onset of ALS (day 73) in the same manner as described in Example 6. Immunohistochemical analysis was performed on the knee joints of early-stage female and male mice (90 days old, FIGS. 7a and 7b) and late-stage female and male mice (120 days old, FIGS. 7c and 7d) in the same manner as described in <Example 8>.
# [4] = 90 days old (early stage), females and males, vs DMSO TG group
# [5] = 120 days old (late stage), vs DMSO TG group
smiles,measurement,setting,value
O=C(C[C@H]1NCCC[C@@H]1O)Cn1cnc2cc(Br)c(Cl)cc2c1=O (racemic) [halofuginone],"elevated mRNA level of TGF-β, α-SMA and Col-I",[1],attenuated
same,"microglia activity (Iba1) in lumbar spinal cord, compared with changes at 120 days",[2]; 90-day-old mice (FIG. 10a),similar
same,microglia (Iba1) in lumbar spinal cord,[2]; 120-day-old mice (FIG. 9a),continuously increased
same,increase in TGF-β1 in lumbar spinal cord,[2]; 120-day-old mice (FIG. 9b),significantly reduced
same,increase in astrocyte activity (GFAP) in lumbar spinal cord,[2]; 120-day-old mice (FIG. 9b),significantly reduced
same,activated inflammation (IL-1β with GFAP activity) in lumbar spinal cord,[2]; 120-day-old mice (FIG. 9c),suppressed
same,increase in TGF-β in knee joint synovial cavity,"[3]; 90 days old (early stage), females and males, 250 μg/kg i.p.",suppressed
same,Col-I expression in knee joint synovial cavity,[3]; [4],significantly lower
same,α-SMA expression in knee joint synovial cavity,[3]; [4],significantly lower
same,Col-I in the synovial cavity,[3]; [5],significantly lower
same,MyoD in the synovial cavity,[3]; [5],higher
same,TGF-β1 in the synovial cavity,[3]; [5],significantly lower
same,α-SMA in the synovial cavity,[3]; [5],significantly lower
same,"strength of TGF-β1, MyoD and Col-1 in the synovial cavity","[3]; 120 days old, female Hal TG group vs DMSO non-TG group",not different
same,strength of MyoD in the synovial cavity,"[3]; 120 days old, male Hal TG group vs DMSO non-TG group",slightly increased
